How the values were obtained:
H1 - and H2 -receptors = assay: Comparison of effects upon H1 - and H2 -receptors of different objects
Protocol: Changes in the heart rate were measured, dose-response curves were plotted, and pD2 values were calculated.

total acidity = assay: Clinical reproducibility of secretory response (total acidity); format: in vivo, human
Text: (§1) Special attention was paid to side effects and the reproductibility of the secretory response after repeated administrations of the drug.
Reproducibility of Secretory Response to Introduction
of Thidazine and Histamine with Reference to Total
Acidity Values (each group of patients includes 10 persons)
^(x) Percentage of difference is the relationship of the difference
between the total acidity values registered in the first and second tests
of a patient to the greater of these values.

H2 -receptors = H2 -receptors (Rattus norvegicus, UniProt P25102); conditions: uterus horn
Protocol: Contractions of an isolated horn of uterus of a rat due to the effect of acetylcholine in a concentration of 1.10^-6 M were recorded on a paper tape.

[1] = test system: gastric secretion of patients with duodenal ulceration; assay: Clinical comparison in patients with duodenal ulceration; format: in vivo, human
Text: as §1
Histamine and Pentagastrin Upon Main Gastric Secretion
Characteristics of Patients With Duodenal Ulceration

H2 -ceptors = H2 -ceptors (Canis lupus familiaris, UniProt P17124); assay: Gastric secretion in dogs with gastric fistula, intramuscular injection
Protocol: Chronic experiments were performed on male dogs weighing 20 to 25 kg and having a gastric fistula; prior to experiments, the animals were starved for 18 hours.
The gastric juice was analyzed for titratable acidity and proteolytic activity. The hydrochloric acid output was calculated in milliequivalents (mEq) and that of pepsin in milligrams.

arterial pressure = assay: Arterial pressure in rabbits; conditions: intravenous, thidazine 0.1 mg/kg, equimolar doses of histamine and histalog
Protocol: In a series of experiments of 18 rabbits weighing 2.5 to 3.5 kg, each having the common carotid artery in a cutaneous flap, the preparations were injected intravenously.

Sequence of H2 -ceptors (P17124 whole entry): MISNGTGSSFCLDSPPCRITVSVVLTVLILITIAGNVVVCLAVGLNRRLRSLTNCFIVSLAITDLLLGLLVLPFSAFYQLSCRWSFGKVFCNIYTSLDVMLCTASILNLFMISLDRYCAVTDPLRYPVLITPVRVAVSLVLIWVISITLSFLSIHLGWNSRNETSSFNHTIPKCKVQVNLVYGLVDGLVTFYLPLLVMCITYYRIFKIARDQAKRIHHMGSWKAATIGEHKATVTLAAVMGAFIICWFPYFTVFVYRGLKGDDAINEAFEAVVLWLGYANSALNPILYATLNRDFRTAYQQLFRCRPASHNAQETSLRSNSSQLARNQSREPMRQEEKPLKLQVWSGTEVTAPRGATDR
Sequence of H2 -receptors (P25102 whole entry): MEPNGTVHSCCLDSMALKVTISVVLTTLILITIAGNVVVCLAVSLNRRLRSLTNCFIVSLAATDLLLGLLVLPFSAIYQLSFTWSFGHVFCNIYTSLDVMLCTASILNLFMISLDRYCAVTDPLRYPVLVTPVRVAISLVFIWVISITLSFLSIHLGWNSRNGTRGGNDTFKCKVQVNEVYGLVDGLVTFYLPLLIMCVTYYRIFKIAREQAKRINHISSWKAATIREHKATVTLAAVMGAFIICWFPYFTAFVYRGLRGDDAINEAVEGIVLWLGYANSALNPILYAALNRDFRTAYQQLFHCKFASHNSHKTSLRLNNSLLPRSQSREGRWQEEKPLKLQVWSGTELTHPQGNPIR

For `NCCc1nnc(N)s1` [Thidazine, 2-amino-5-(2-aminoethyl)-1,3,4-thiadiazole], the “action upon H2 -receptors compared with H1 -receptors” value (H1 - and H2 -receptors) was “the action of thidazine upon H2 -receptors is stronger than its action upon H1 -receptors”, the “% of difference (fluctuations) of total acidity, first and second tests” value (total acidity; 0.7 mg/kg hypodermic) was 15-42% and the “Average difference of total acidity” value (total acidity; 0.7 mg/kg hypodermic) was 31%. For the same compound, the “% of difference (fluctuations) of total acidity, first and second tests” value (total acidity; 1.5mg/kg per os) was 0-22%, the “Average difference of total acidity” value (total acidity; 1.5mg/kg per os) was 7.5% and the Emax (H2 -receptors) was 15%. The “Chymosin Output” value ([1]; 1st hour (basal secretion)) was 17.3 ± 0.3 units per hour, the “Pepsin Output” value ([1]; 1st hour (basal secretion)) was 4.0 ± 0.7 units per hour and the “Secretion, milliequivalents per hour” value ([1]; 1st hour (basal secretion)) was 7.25 ± 0.9 Milliequivalents per hour. For the same compound, the “Chymosin Output” value ([1]; 2nd hour) was 218.2 ± 4.0 units per hour, the “Pepsin Output” value ([1]; 2nd hour) was 17.8 ± 2.3 units per hour and the “Secretion, milliequivalents per hour” value ([1]; 2nd hour) was 23.9 ± 1.8 Milliequivalents per hour. The “production of maximum level of hydrochloric acid secretion in the stomach” value (H2 -ceptors; animal (dog)) was “can produce a maximum level of hydrochloric acid secretion in the stomach of a dog”, the “effect upon arterial pressure, heart rate and general behavior” value (H2 -ceptors; dog, 3 mg/kg (maximum secretion dose)) was “no significant effect” and the maximum dose (H2 -ceptors; dogs, intramuscular) was 3.0 mg/kg. For the same compound, the “maximum hourly output of hydrochloric acid” value (H2 -ceptors; dogs, intramuscular) was 24 mEq per hour, the “maximum hourly output of pepsin” value (H2 -ceptors; dogs, intramuscular) was 110 mg per hour and the minimum active dose (H2 -ceptors; dogs, intramuscular) was 0.05 mg/kg. The “reduction of arterial pressure” value (arterial pressure) was 12 mm of mercury.
